Data from ChEMBL document CHEMBL2034968, “Discovery of novel urea-based hepatitis C protease inhibitors with high potency against protease-inhibitor-resistant mutants” (J Med Chem, 2012).
pEC50, pIC50: −log10 of the molar value.

Tests used:
Hepatitis C virus [1] = experiment: Resistance index, ratio of EC50 for Hepatitis C virus subtype 1b harboring protease R155K mutant to EC50 for wild type Hepatitis C virus subtype 1b; format: functional, Hepacivirus hominis, genotype 1b
[2] = Inhibition of HCV 1a protease 1a domain; design: species or system Hepacivirus hominis
Hepatitis C virus [3] = experiment: Antiviral activity against Hepatitis C virus subtype 1b by stable replicon assay; format: functional, organism-based, Hepacivirus hominis; settings: genotype 1b
Hepatitis C virus [4] = experiment: Antiviral activity against Hepatitis C virus subtype 1a by stable replicon assay; format: functional, organism-based, Hepacivirus hominis
Hepatitis C virus [5] = experiment: Antiviral activity against Hepatitis C virus subtype 1b harboring protease D168V mutant by transient replicon assay; format: functional, organism-based, Hepacivirus hominis; settings: genotype 1b
Hepatitis C virus [6] = experiment: Antiviral activity against Hepatitis C virus subtype 1b harboring protease D168A mutant by transient replicon assay; format: functional, organism-based, Hepacivirus hominis; settings: genotype 1b
Hepatitis C virus [7] = experiment: Antiviral activity against Hepatitis C virus subtype 1b harboring protease A156V mutant by transient replicon assay; format: functional, organism-based, Hepacivirus hominis; settings: genotype 1b
Hepatitis C virus [8] = experiment: Antiviral activity against Hepatitis C virus subtype 1b harboring protease A156T mutant by transient replicon assay; format: functional, organism-based, Hepacivirus hominis; settings: genotype 1b
Hepatitis C virus [9] = experiment: Antiviral activity against Hepatitis C virus subtype 1b harboring protease A156S mutant by transient replicon assay; format: functional, organism-based, Hepacivirus hominis; settings: genotype 1b
Hepatitis C virus [10] = experiment: Antiviral activity against wild type Hepatitis C virus subtype 1b by transient replicon assay; format: functional, organism-based, Hepacivirus hominis; settings: genotype 1b
Hepatitis C virus [11] = experiment: Antiviral activity against Hepatitis C virus subtype 1b harboring protease R155K mutant by transient replicon assay; format: functional, organism-based, Hepacivirus hominis; settings: genotype 1b
Hepatitis C virus [12] = experiment: Resistance index, ratio of EC50 for Hepatitis C virus subtype 1b harboring protease D168A mutant to EC50 for wild type Hepatitis C virus subtype 1b; format: functional, Hepacivirus hominis, genotype 1b
Hepatitis C virus [13] = experiment: Resistance index, ratio of EC50 for Hepatitis C virus subtype 1b harboring protease D168V mutant to EC50 for wild type Hepatitis C virus subtype 1b; format: functional, Hepacivirus hominis, genotype 1b
Rattus norvegicus [14] = experiment: Hepatic clearance in rat at 1 mg/kg, iv; format: ADME, organism-based, Liver; design: dose 1 mg/kg, route intravenous; settings: in vivo
[15] = AUC in rat at 1 mg/kg, iv; format: ADME, organism-based, Plasma; design: dose 1 mg/kg, route intravenous; settings: plasma
[16] = AUC in rat at 5 mg/kg, po; format: ADME, organism-based, Plasma; design: dose 5 mg/kg, route oral; settings: plasma
[17] = Terminal half life in rat at 5 mg/kg, po; format: ADME, organism-based; design: dose 5 mg/kg, route oral; settings: in vivo, read-out: beta t1/2 (converted)
[18] = Maximum drug absorption in rat at 5 mg/kg, po; format: ADME, organism-based; design: dose 5 mg/kg, route oral; settings: in vivo, read-out: Drug absorption
[19] = Oral bioavailability in rat at 5 mg/kg; format: ADME, organism-based; settings: in vivo
Rattus norvegicus [20] = experiment: Dose normalized AUC in rat at 5 mg/kg, po; format: ADME, organism-based; design: dose 5 mg/kg, route oral; settings: in vivo

SMILES	Ratio EC50 (Hepatitis C virus [1])	pIC50 [2]	pEC50 (Hepatitis C virus [3])	pEC50 (Hepatitis C virus [4])	pEC50 (Hepatitis C virus [5])	pEC50 (Hepatitis C virus [6])	pEC50 (Hepatitis C virus [7])	pEC50 (Hepatitis C virus [8])	pEC50 (Hepatitis C virus [9])	pEC50 (Hepatitis C virus [10])	pEC50 (Hepatitis C virus [11])	Ratio EC50 (Hepatitis C virus [12])	Ratio EC50 (Hepatitis C virus [13])	CLH (Rattus norvegicus [14]) [mL/min/kg]	AUC [15] [ng·h/mL]	AUC [16] [ng·h/mL]	half-life [17] [min]	Fa [18] [%]	bioavailability [19] [%]	AUC/dose (Rattus norvegicus [20]) [kg·µg·h/mL/mg]
CCN(C)C(=O)N[C@H]1CCCCC/C=C\[C@@H]2C[C@@]2(C(=O)NS(=O)(=O)C2CC2)NC(=O)[C@@H]2C[C@@H](Oc3cc(-c4nc(C(C)C)cs4)nc4c(C)c(OC)ccc34)CN2C1=O	<1000	8.22	9.40	9.15	6.83	7.22	7.96	8.52	9.30	9.70	7.60	<1000	<1000							
COc1ccc2c(O[C@@H]3C[C@H]4C(=O)N[C@]5(C(=O)NS(=O)(=O)C6CC6)C[C@H]5/C=C\CCCCC[C@H](NC(=O)N5CCC5)C(=O)N4C3)cc(-c3nc(C(C)C)cs3)nc2c1C	<1000	8.40	9.40	9.10	7.01	7.22	8.10	8.70	9.70	10.00	7.70	<1000	<1000	160.3	107	40.5	136	7.6	4.2	0.008
COc1ccc2c(O[C@@H]3C[C@H]4C(=O)N[C@]5(C(=O)NS(=O)(=O)C6CC6)C[C@H]5/C=C\CCCCC[C@H](NC(=O)N5CC(F)(F)C5)C(=O)N4C3)cc(-c3nc(C(C)C)cs3)nc2c1C	<1000	8.70	9.30	9.10	7.24	7.82	8.22	9.00		10.00	7.85	<1000	<1000	91.03	203	69	48.4	6.8	4	0.014
COc1ccc2c(O[C@@H]3C[C@H]4C(=O)N[C@]5(C(=O)NS(=O)(=O)C6CC6)C[C@H]5/C=C\CCCCC[C@H](NC(=O)N5CC6CCCC6C5)C(=O)N4C3)cc(-c3nc(C(C)C)cs3)nc2c1C (some centres not stated)		8.30	9.52	9.52	7.08	7.64	7.82	9.00	10.00	11.00	7.96									
COc1ccc2c(O[C@@H]3C[C@H]4C(=O)N[C@]5(C(=O)NS(=O)(=O)C6CC6)C[C@H]5/C=C\CCCCC[C@H](NC(=O)N5C[C@@H](C)O[C@@H](C)C5)C(=O)N4C3)cc(-c3nc(C(C)C)cs3)nc2c1C		8.70	8.92	7.97	5.68	6.37	7.16	7.64	9.00	9.15	6.63									
COc1ccc2c(O[C@@H]3C[C@H]4C(=O)N[C@]5(C(=O)NS(=O)(=O)C6CC6)C[C@H]5/C=C\CCCCC[C@H](NC(=O)N5CCS(=O)(=O)CC5)C(=O)N4C3)cc(-c3nc(C(C)C)cs3)nc2c1C		8.70	9.30	8.64	5.85	6.43	7.42	8.30	9.52	9.40	6.94									
COc1ccc2c(O[C@@H]3C[C@H]4C(=O)N[C@]5(C(=O)NS(=O)(=O)C6CC6)C[C@H]5/C=C\CCCCC[C@H](NC(=O)N(C)C(C)C)C(=O)N4C3)cc(-c3nc(C4CC4)cs3)nc2c1C	<1000	9.10	9.40	9.52	7.43	7.77	8.30	8.70	10.30	10.40	8.30	<1000	<1000							
CCN(C(=O)N[C@H]1CCCCC/C=C\[C@@H]2C[C@@]2(C(=O)NS(=O)(=O)C2CC2)NC(=O)[C@@H]2C[C@@H](Oc3cc(-c4nc(C5CC5)cs4)nc4c(C)c(OC)ccc34)CN2C1=O)C(C)C	<1000	9.00	9.40	9.40	6.82	7.30	7.62	8.10	9.15	9.70	7.80	<1000	<1000							
COc1ccc2c(O[C@@H]3C[C@H]4C(=O)N[C@]5(C(=O)NS(=O)(=O)C6CC6)C[C@H]5/C=C\CCCCC[C@H](NC(=O)N(C)C(C)(C)C)C(=O)N4C3)cc(-c3nc(C4CC4)cs3)nc2c1C	<1000		9.00	9.00	7.08	7.15	8.05	8.15	9.40	9.70	7.55	<1000	<1000							
COc1ccc2c(O[C@@H]3C[C@H]4C(=O)N[C@]5(C(=O)NS(=O)(=O)C6CC6)C[C@H]5/C=C\CCCCC[C@H](NC(=O)N(C(C)C)C(C)C)C(=O)N4C3)cc(-c3nc(C4CC4)cs3)nc2c1C	<1000	8.70	9.05	9.15	6.98	7.19	7.37	7.96	9.22	9.70	7.34	<1000	<1000							
COc1ccc2c(O[C@@H]3C[C@H]4C(=O)N[C@@]5(C(=O)NS(=O)(=O)C6CC6)C[C@@H]5/C=C/CCCCN(C)C(=O)[C@@H]4C3)cc(-c3nc(C(C)C)cs3)nc2c1C	0.3	8.00	9.00	8.70	6.85	6.83	6.46	7.07	9.52	9.00	7.25	0.3	0.3							
COc1ccc2c(O[C@@H]3C[C@H]4C(=O)N[C@]5(C(=O)O)C[C@H]5/C=C\CCCCC[C@H](NC(=O)OC5CCCC5)C(=O)N4C3)cc(-c3csc(NC(C)C)n3)nc2c1 [CILUPREVIR]		8.70	9.30	8.66	6.36	6.69	6.20	6.22	8.52	9.00	6.62									
CC(C)(C)OC(=O)N[C@H]1CCCCC/C=C\[C@@H]2C[C@@]2(C(=O)NS(=O)(=O)C2CC2)NC(=O)[C@@H]2C[C@@H](OC(=O)N3Cc4cccc(F)c4C3)CN2C1=O [DANOPREVIR]	10	9.15	8.82	8.70	7.59	7.41	8.10	8.00	8.70	9.70	7.09	10	10							
CCC[C@H](NC(=O)[C@@H]1[C@H]2CCC[C@H]2CN1C(=O)[C@@H](NC(=O)[C@@H](NC(=O)c1cnccn1)C1CCCCC1)C(C)(C)C)C(=O)C(=O)NC1CC1 [TELAPREVIR]	6	6.30	6.43	6.27	6.68	6.20	5.71	5.94	6.05	7.47	5.75	6	6							
